For series [1] the following is noted: Saxton et al. 2004; Greene NEJM; cited from earlier work.
For series [2] the following is noted: cited from earlier work.
Series [3] is described as follows: Phase 1b open-label pharmacokinetic study in healthy pregnant women (single dose data and simulated steady state). Format: in vivo, human (pregnant women). The following applies: for Cmax / AUC(0-t): female, human, in vivo, N = 7; for Cmax / AUC(0-t) / AUCSS / Css, max: pregnant women; for AUC(0-t): read-out: AUC0-24; for AUCSS / Css, max: simulated steady state; for AUCSS: 1 week duration. How it is done: Formulations (e.g., oral dosage forms like those described herein) were used in a Phase 1b open-label study that enrolled eight healthy; pregnant women at 16 to 18 weeks gestation. All subjects received three treatments in sequence. In period one, subjects received two doses of 400 mg with oral dosage forms like those described herein, administered 12 hours apart. In period two, subjects received two doses of 800 mg oral with dosage forms like those described herein, administered 12 hours apart. In period three, subjects were given 250 mg of HPC via intramuscular injection (marketed product Makena®). Blood samples were collected periodically over 24 hours following oral dosing and over 28 days following the IM dose.
Steady state pharmacokinetic parameters for oral and IM dosing regimens were simulated based on single dose data and the Cmax and […] values are shown in the table below.

Where [4] appears, read: oral 400 mg BID (two doses 12 hours apart).
Setting [5] is: oral 800 mg BID (two doses 12 hours apart).

Usually Cmax stands for the maximum level reached in the sampled fluid or tissue.

SMILES strings stand for the structures. Read-outs that look alike come from different tables or passages of the source.

As for `CCCCCC(=O)O[C@]1(C(C)=O)CC[C@H]2[C@@H]3CCC4=CC(=O)CC[C@]4(C)[C@H]3CC[C@@]21C` [Example 17HPC, 17-hydroxyprogesterone caproate], the oral activity result in series [1] is recorded as “no oral activity”. For the same molecule, in series [2], the solubility in water was less than 0.02 µg/mL. Also, in series [3] (800 mg dose vs 400 mg dose, oral), the “increase in exposure with dose” value was “more than dose proportional increase in exposure”. Also, the values for the Cmax in series [3] (setting [4]) and in series [3] (setting [5]) were 21.3 ng/mL and 63.2 ng/mL, respectively. The AUC(0-t) is 156 ng·h/mL in series [3] (setting [4]) and 577 ng·h/mL in series [3] (setting [5]). The “absorption following oral administration” value in series [3] (healthy pregnant women) was “significant HPC absorption”. Further, the AUCSS in series [3] (oral 400 mg BID) was 1074 ng·h/mL; in series [3] (oral 800 mg BID), 4058 ng·h/mL. The “Css, max” value was 21.6 ng/mL in series [3] (oral 400 mg BID) and 71.1 ng/mL in series [3] (oral 800 mg BID).
